Assay results taken from ChEMBL document CHEMBL1144627, “N-(3-(4-Hydroxyphenyl)-propenoyl)-amino acid tryptamides as SIRT2 inhibitors” (Bioorg Med Chem Lett, 2007).

Experiments:
[1] = target: T1, NAD-dependent protein deacetylase sirtuin-2 (Homo sapiens) (UniProt Q8IXJ6); experiment: Inhibition of SIRT2 at 200 uM
T1 sequence (whole entry): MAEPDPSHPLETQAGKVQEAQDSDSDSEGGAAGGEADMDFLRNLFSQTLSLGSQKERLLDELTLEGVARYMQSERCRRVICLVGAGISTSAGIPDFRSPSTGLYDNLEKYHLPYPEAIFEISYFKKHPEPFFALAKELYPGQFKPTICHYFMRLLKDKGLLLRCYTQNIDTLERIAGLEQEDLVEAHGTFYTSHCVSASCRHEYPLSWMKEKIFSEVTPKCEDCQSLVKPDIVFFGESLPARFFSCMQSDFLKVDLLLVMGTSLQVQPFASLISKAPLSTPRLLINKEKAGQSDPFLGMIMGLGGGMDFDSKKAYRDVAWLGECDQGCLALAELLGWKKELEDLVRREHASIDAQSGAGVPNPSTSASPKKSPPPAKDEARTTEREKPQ

[2] = target: T2, NAD-dependent protein deacetylase sirtuin-1 (Homo sapiens) (UniProt Q96EB6); experiment: Inhibition of SIRT1 at 200 uM
T2 sequence (whole entry): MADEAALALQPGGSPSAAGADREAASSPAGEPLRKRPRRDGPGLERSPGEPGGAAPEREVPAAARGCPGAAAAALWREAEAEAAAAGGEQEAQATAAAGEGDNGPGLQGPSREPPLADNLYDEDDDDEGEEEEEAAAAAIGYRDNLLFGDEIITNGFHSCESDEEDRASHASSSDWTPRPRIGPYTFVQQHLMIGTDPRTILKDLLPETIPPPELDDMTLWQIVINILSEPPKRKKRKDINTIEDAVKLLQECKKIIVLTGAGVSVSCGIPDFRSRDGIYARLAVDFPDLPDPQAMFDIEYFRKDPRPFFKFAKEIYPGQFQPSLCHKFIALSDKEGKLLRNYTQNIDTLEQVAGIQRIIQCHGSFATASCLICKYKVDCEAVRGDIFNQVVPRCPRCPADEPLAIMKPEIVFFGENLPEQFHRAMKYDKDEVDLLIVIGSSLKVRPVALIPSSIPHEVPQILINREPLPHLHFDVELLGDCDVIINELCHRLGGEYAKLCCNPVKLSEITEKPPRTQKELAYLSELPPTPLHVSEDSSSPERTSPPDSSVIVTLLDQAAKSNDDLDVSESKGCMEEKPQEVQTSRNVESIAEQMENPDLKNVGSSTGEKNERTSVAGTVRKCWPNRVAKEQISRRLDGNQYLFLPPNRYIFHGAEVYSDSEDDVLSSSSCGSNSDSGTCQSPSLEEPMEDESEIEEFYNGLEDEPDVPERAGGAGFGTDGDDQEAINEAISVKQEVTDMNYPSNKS

[3] = target: T3, NAD-dependent protein deacetylase sirtuin-1 (Homo sapiens, UniProt Q96EB6); experiment: Inhibition of SIRT1
T3 sequence (Q96EB6 whole entry): T2 sequence (whole entry)

[4] = target: T4, NAD-dependent protein deacetylase sirtuin-2 (Homo sapiens, UniProt Q8IXJ6); experiment: Inhibition of SIRT2
T4 sequence (Q8IXJ6 whole entry): T1 sequence (whole entry)

In the case of `CC(C)(NC(=O)/C=C/c1ccc(OCc2ccccc2)cc1)C(=O)NCCc1c[nH]c2ccccc12`, the inhibition [1] is reported as 32.6% and the inhibition [2] is reported as 10.2%.
Compound `NC(=O)C1CCCc2c1[nH]c1ccc(Cl)cc21` (stereo unspecified) has an inhibition [1] of 89.4% and an inhibition [2] of 98.9%.
For `O=C(/C=C/c1ccc(OCc2ccc(F)cc2)cc1)NC1(C(=O)NCCc2c[nH]c3ccc(F)cc23)CCNCC1`, the inhibition [2] was 94.1% and the IC50 [3] was 73 µM.
Work on `O=C(/C=C/c1ccc(OCc2ccccc2)cc1)NC1(C(=O)NCCc2c[nH]c3ccccc23)CCNCC1` yielded an IC50 [4] of 63 µM, an inhibition [1] of 79.1% and an inhibition [2] of 97%. The IC50 [3] was 52 µM.
`COc1ccc(/C=C/C(=O)NC(C)(C)C(=O)NCCc2c[nH]c3ccccc23)cc1` was tested, and the IC50 [4] was 99 µM, the inhibition [1] was 55.4% and the inhibition [2] was 10.3%.
`C[C@@H](NC(=O)/C=C/c1ccc(O)cc1)C(=O)NCCc1c[nH]c2ccccc12` was tested, and the inhibition [1] was 8.5% and the inhibition [2] was 3.2%.
In the case of `CC(C)(NC(=O)/C=C/c1ccc(O)cc1)C(=O)NCCc1c[nH]c2ccccc12`, the IC50 [4] is reported as 50 µM, the inhibition [1] is reported as 83.3% and the inhibition [2] is reported as 6.6%.
`CC(C)(NC(=O)/C=C/c1ccc(O)cc1)C(=O)NCCc1c[nH]c2ccc(F)cc12` showed an IC50 [4] of 80 µM, an inhibition [1] of 67.5% and an inhibition [2] of 7%.
Compound `C[C@H](NC(=O)/C=C/c1ccc(O)cc1)C(=O)NCCc1c[nH]c2ccccc12` has an IC50 [4] of 47 µM, an inhibition [1] of 88.6% and an inhibition [2] of 17.7%.
Compound `O=C(/C=C/c1ccc(O)cc1)NCC(=O)NCCc1c[nH]c2ccccc12` has an inhibition [1] of 44.3% and an inhibition [2] of 9.9%.
